Results as given in patent US6664232B1, “HLA-A2 restraint tumor antigen peptide originating in SART-1” (Kyogo Itoh, priority 1998, dated 2003).
No end group written: not given here.

Test system: YK-EC (HLA-A2-restricted CTL cell line) with HLA-A0201-positive T2 cells
Test: IFN-γ production by YK-EC incubated with peptide-pulsed T2 cells (ELISA)
Type: cell-based, human
Conditions: 2×10^4 T2 cells pulsed with peptide at 10 μM over 2 hours, incubated with 1×10^5 YK-EC for 18 hours; IFN-γ in supernatant by ELISA; non peptide control 6.5
Procedure: Specifically, 10^4 of VA-13 cells were placed in each well of 96-well microplate, and incubated in RPMI 1640 medium containing 10% FCS. VA-13 cells were doubly transfected with 30 μl mixture consisting of 100 ng of the recombinant plasmid for HLA-A0201 cDNA and 100 ng of 6DI by using Lipofectin reagent (GIBCO BRL). Transfectants were prepared in duplicate. After 5-hour-incubation, 200 μl of culture medium was added to the transfectants, and the incubation continued for 72 hours. The culture medium was removed and 2×10^4 YK-EC were added, which was followed by cultivation for 18 to 24 hours. The culture medium was recovered, and the amount of IFN-γ was measured by ELISA. Specifically, an anti-humnan IFN-γ mouse monoclonal antibody was allowed to adsorb on wells of 96-well microplate to provide a solid-phased antibody. After blocking non-specific bindings with bovine serum albumin, the solid-phased antibody was allowed to bind with IFN-γ in the test sample. Anti-human IFN-γ rabbit polyclonal antibody as a detection antibody was then allowed to bind, which was followed by binding with an anti-rabbit immunoglobulin goat antibody (Amersham) labeled with alkaline phosphatase. The plate was subjected to color development reaction with peroxdase color development kit T (Sumitomo Bakelite), and measurement of absorbance at 405 nm. The absorbance was compared with that obtained with standard IFN-γ to determine the amount of IFN-γ. In the control experiments, the following three groups of cells were treated in the same manner: cells without transfection (non-treated group); cells transfected with recombinant plasmid 6DI alone; and cells transfected with solely recombinant plasmid containing HLA-A201 cDNA. To 2×10^4 T2 cells (Immunogenetics, 21:235,1985), which cell is an HLA-A0201-positive T-B hybridoma cell line but lacks the ability to present endogenous peptides, were added each of six peptides prepared in Example 3 at 10 μM over 2 hours. After incubating with 1×10^5 YK-EC for 18 hours, the amount of IFN-γ in supernatant produced by YK-EC was measured by ELISA in the same manner as described in Example 2.

Sequence | Amount of INF-γ produced by YK-EC [pg/mL]
LLLCQNKGLL [642-651] | 112.4
AQKTPYIVL [778-786] | 105.4
RVKAPNKSL [660-668] | 71.1
LLETTVQKV [650-658] | 118.1
YVDETGRKL [712-720] | 86.1
LLLCQNKGL [642-650] | 109.1
